{
  "source": "patent US20250041313A1",
  "about": "“COMBINATION THERAPY FOR TREATMENT OF CANCER” (CITY OF HOPE, priority 2023, published 2025)",
  "format_in_all_cases": "cell-based, human",
  "key": {"SBC5 cells [1]": {"system": "SBC5 cells", "assay": "CCK-8 cell viability/cytotoxicity assay, 72 h", "description": "(§1) The expression levels of DRP1 and DHODH in SCLC lines were compared with non-malignant BEAS 2B cells. […] Previous studies have shown that Leflu and its active metabolite Teri regulate mitochondrial morphology (9,10,26). […] In vitro cytotoxicity effect of Teri and Leflu was tested in a panel of SCLC cell lines. Ten SCLC cell lines were treated with increasing concentrations of each drug for 72 h.\n(§2) Isobologram and CI50 values were calculated using the Chou-Talalay method and IC50 to find synergism (FIG. 3B)."}, "SBC3 cells [2]": {"system": "SBC3 cells", "assay": "CCK-8 cell viability/cytotoxicity assay, 72 h", "conditions": "Homo sapiens, SBC-3", "description": "as §1, §2"}, "SBC3 cells [3]": {"system": "SBC3 cells", "assay": "Imaris quantification of mitochondrial and nuclear areas/morphology", "description": "Imaris 9.9.0 (Bitplane, AG), with Surfaces and Cells modules, was used to generate mitochondria morphology data from 2D images and 2D Z-stack subsets. Surfaces were used to evaluate individual mitochondria from cell monolayers and spheroids. Detection parameters were optimized for visible mitochondria and nuclei in each group with varying signal intensities. Roundness ratios were calculated from Surface generated Bounding Box 00 Length measurements. Object lengths less than 0.1 μm were excluded, and lengths greater than 1.26 μm were separately analyzed as clusters. Thresholds were uniformly applied to roundness ratios to categorize mitochondria morphology as elongated (<0.599), intermediate (≥0.600-0.649), or round/fragmentated (≥0.650). The percentage of cells from total number is based on a ratio. A perfectly round object has a ratio of 1.0. The Cells module was used to detect and quantify mitochondria and nucleus area from cell monolayers. Identical parameters were applied to all groups with cell boundary detection based on mitochondria signals. Imaris includes nuclei in cytoplasm measurements, so mitochondrial area is calculated by subtracting nucleus area from cell cytoplasm area. Abnormal nuclei were excluded (<100 μm^2, >750 μm^2).\nMitoTracker Red and Hoechst 33342 were used to validate Teri and Leflu effects on intact mitochondrial morphology in SBC3 and SBC5 cells. M1 and MDIVI1 compounds were used as positive controls because they are promoters of mitochondrial fusion. Mitochondrial and nuclear areas were quantified by analyzing object surface area and intensity in Imaris 9.9.0."}, "SBC5 cells [4]": {"system": "SBC5 cells", "assay": "IncuCyte S3 live-cell proliferation", "description": "(§3) FIGS. 2A-2I. Teriflunomide (Teri) affects the phosphorylation of DRP1 at Ser^616 and mitochondrial/nuclear morphology. FIG. 2A: Effect of Teri and Leflu on SBC3, and SBC5 cells proliferation was recorded by the Sartorius IncuCyte S3 live-cell analysis system (n=2, four technical replicates). […] FIG. 2B: Effect of Teri on DRP1 phosphorylation in SBC3 cells. Cell lysates were subjected to immunoblotting (n=3, biological replicates). FIG. 2C: The expression ratio of level of pDRP1 Ser^616 and Ser^637 to actin was calculated via densitometric analysis of each blot using ImageJ software. The detected ratio of pDRP1 Ser^616 to pDRP1 Ser^637 was calculated and compared in SBC3 cells. […] FIGS. 2D-2E: Calculating pDRP1 Ser^616 fluorescence signal by QuPath software. Bar graphs mean±SE, *p<0.05; **p<0.01; ***p<0.001; ****p<0.0001. Results were analyzed by ANOVA with Tukey post-test. FIG. 2F: The surface areas of SBC3 mitochondria and nuclei were quantified with Imaris Cells modules. The minimal number of SBC3 cells analyzed for each group was 103 (M1 10 μM), and the maximal was 383 (Control). FIG. 2G: SBC5 mitochondria and nuclei surface areas were quantified with Imaris Cells modules. The minimal number of SBC5 cells analyzed for each group was 357 (MDIVI1 10 μM) and the maximal was 570 (Control). Results were analyzed by ANOVA with Tukey post-test, *p<0.05; **p<0.01; ****p<0.0001. Mitochondria in control cells were closely packed around the nuclei and treatment with Teri rearranged the mitochondrial network and extended the area from the nuclei. […] SBC3 cells were treated with drugs for 18 hours, fixed with paraformaldehyde and subjected to IF staining with Tom 20 antibody, nuclei were stained with Hoechst 33342. Scale bar 10 μm. Right inserts represent shape of mitochondria for control and treatments. FIG. 2I: High resolution confocal IF images of mitochondria in SBC5 cells. Scale bar 10 μm. Right inserts represent shape of mitochondria for control and treatments."}, "SBC3 cells [5]": {"system": "SBC3 cells", "assay": "IncuCyte S3 live-cell proliferation", "description": "as §3"}, "H446 spheroids": {"system": "H446 spheroids", "assay": "Imaris mitochondrial morphology in spheroids", "conditions": "Teri 1600 nM, Teri/Lur 800, 1600 nM/pM", "description": "Spheroids were transferred to low cell attachment dishes, grown for two days, and treated with drug. After treatment, spheroid samples were run with Western blot assay. For spheroid mitochondria visualization, they were stained with 250 nM MitoTracker® Red CMXRos and Hoechst from ThermoFisher Scientific (Waltham, MA) for 2 h after drug treatment. Spheroids were washed, fixated with 4% PFA, transferred into 96-well flat glass-bottom black microplate (Cellvis, Mountain View, CA), and mounted in wells. […] Z-stacks were acquired in Airyscan Fast mode with a 2.0 μm interval and optical zoom of 2.0. […] In Airyscan Fast mode excitation was provided by 405 nm (1.0%) and 561 nm (1.0%) lasers with gain and detection wavelengths: DAPI […] (450 nm) and Red […] (579 nm). 2D images were acquired with a 20×/0.8 NA Plan-Apochromat objective and captured with PMT detectors. […] Roundness ratios were calculated from Surface generated Bounding Box 00 Length measurements. Object lengths less than 0.1 μm were excluded, and lengths greater than 1.26 μm were separately analyzed as clusters. […] The Cells module was used to detect and quantify mitochondria and nucleus area from cell monolayers. […] Imaris includes nuclei in cytoplasm measurements, so mitochondrial area is calculated by subtracting nucleus area from cell cytoplasm area. […]"}, "[6]": {"conditions": "SBC3 cells, 72 h, read-out: IC50"}},
  "note": "Like-named read-outs stand apart in the source and are kept apart here.",
  "data": [
    {"smiles": "Cc1oncc1C(=O)Nc1ccc(C(F)(F)F)cc1", "note": "[Leflunomide, leflunomide]", "values": [
      {"measurement": "IC50", "setting": "SBC5 cells [1]; Homo sapiens, SBC-5, 72 h", "result": 108, "unit": "µM"},
      {"measurement": "IC50", "setting": "SBC3 cells [2]; [6]", "result": 8.9, "unit": "µM"},
      {"measurement": "Mitochondrial elongation (Airyscan imaging)", "setting": "SBC3 cells [3]; SBC3", "result": "visible"},
      {"measurement": "effect on mitochondrial or nuclear areas", "setting": "SBC3 cells [3]; SBC3", "result": "did not affect"},
      {"measurement": "cell proliferation", "setting": "SBC5 cells [4]", "result": "inhibited cell proliferation in a dose-dependent manner"},
      {"measurement": "cell proliferation", "setting": "SBC3 cells [5]", "result": "inhibited cell proliferation in a dose-dependent manner"}
    ]},
    {"smiles": "COc1ccc2[nH]c3c(c2c1)CCN[C@]31CS[C@@H]2c3c(OC(C)=O)c(C)c4c(c3[C@H](COC1=O)N1[C@@H]2[C@H]2c3c(cc(C)c(OC)c3O)C[C@@H]([C@@H]1O)N2C)OCO4", "note": "[Lurbinectedin, lurbinectedin]", "values": [
      {"measurement": "Percentages of round/fragmentated mitochondria", "setting": "H446 spheroids", "result": "significantly decreased"}
    ]},
    {"smiles": "C/C(O)=C(\\C#N)C(=O)Nc1ccc(C(F)(F)F)cc1", "note": "[Teriflunomide, teriflunomide]", "values": [
      {"measurement": "IC50", "setting": "SBC5 cells [1]", "result": 33, "unit": "µM"},
      {"measurement": "IC50", "setting": "SBC5 cells [1]; Homo sapiens, SBC-5, 72 h", "result": 30, "unit": "µM"},
      {"measurement": "IC50", "setting": "SBC3 cells [2]; SBC3, CCK-8 72 h, fixed concentrations of Teri and Carbo, read-out: IC50, single treatment and combination treatment", "result": 4.24, "unit": "µM"},
      {"measurement": "IC50", "setting": "SBC3 cells [2]; [6]", "result": 2, "unit": "µM"},
      {"measurement": "Percentages of round/fragmentated mitochondria", "setting": "H446 spheroids", "result": "significantly decreased"},
      {"measurement": "Mitochondrial elongation (Airyscan imaging)", "setting": "SBC3 cells [3]; SBC3", "result": "visible"},
      {"measurement": "Mitochondrial area", "setting": "SBC3 cells [3]; SBC3, 10 μM", "result": "569±19.9", "unit": "μm^2"},
      {"measurement": "Nuclear size (area)", "setting": "SBC3 cells [3]; SBC3, 10 μM", "result": "386.8±10.86", "unit": "μm^2"},
      {"measurement": "Mitochondrial area", "setting": "SBC3 cells [3]; SBC3, 20 μM", "result": "604.8±28.9", "unit": "μm^2"},
      {"measurement": "Nuclear size (area)", "setting": "SBC3 cells [3]; SBC3, 20 μM", "result": "423.5±16.57", "unit": "μm^2"},
      {"measurement": "cell proliferation", "setting": "SBC5 cells [4]", "result": "inhibited cell proliferation in a dose-dependent manner"},
      {"measurement": "cell proliferation", "setting": "SBC3 cells [5]", "result": "inhibited cell proliferation in a dose-dependent manner"}
    ]}
  ]
}
